Assay results published in patent US20260262643A1, “HERBICIDAL BENZOXAZINES” (FMC CORPORATION, priority 2022, published 2026).

Columns and labels:
ragweed [1] = assay: Test C preemergence; assay type: in vivo, Ambrosia artemisiifolia; settings: preemergence, 0 to 100 scale (0 no effect, 100 complete control)
Outline: (§1)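 Visual injury ratings on a 0–100 scale (100 = complete control) were made against untreated controls 10 days after treatment in the greenhouse. Compounds, formulated with surfactant in non-phytotoxic solvent, were sprayed on soil preemergence or onto one- to two-leaf plants 2–10 cm tall postemergence.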

oat, wild [2] = assay: Test C preemergence; assay type: in vivo, Avena fatua; settings: preemergence, 0 to 100 scale (0 no effect, 100 complete control)
Outline: as §1

corn [3] = assay: Test C preemergence; assay type: in vivo, Zea mays; settings: preemergence, 0 to 100 scale (0 no effect, 100 complete control)
Outline: as §1

corn [4] = assay: Test C postemergence; assay type: in vivo, Zea mays; settings: 10 days
Outline: as §1

soybean [5] = assay: Test C postemergence; assay type: in vivo, Glycine max; settings: 125 g ai/ha, postemergence, 10 days; 0 to 100 scale, 0 no effect, 100 complete control
Outline: as §1

barnyardgrass [6] = assay: Test D flooded paddy test; assay type: in vivo, Echinochloa crus-galli; settings: 250 g ai/ha, applied to paddy water, visual rating after 13 to 14 days, scale 0 to 100 (0 no effect, 100 complete control)
Outline: (§2)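 Seedlings reached the 2-leaf stage, then pots were flooded to 3 cm over the soil surface. Compound was applied into the water, depth was maintained, and plants stayed in the greenhouse 13 to 14 days before visual scoring (0–100) relative to controls.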

sedge, umbrella = assay: Test D flooded paddy test; assay type: in vivo, Cyperus difformis; settings: 250 g ai/ha, applied to paddy water, visual rating after 13 to 14 days, scale 0 to 100 (0 no effect, 100 complete control)
Outline: as §2

rice = assay: Test D flooded paddy test; assay type: in vivo, Oryza sativa; settings: 250 g ai/ha, applied to paddy water, visual rating after 13 to 14 days, scale 0 to 100 (0 no effect, 100 complete control)
Outline: as §2

barnyardgrass [7] = assay: Test C preemergence; assay type: in vivo, Echinochloa crusgalli; settings: 0 to 100 scale (0 no effect, 100 complete control); for Plant response rating, Barnyardgrass: Preemergence, 500 g ai/ha, visual rating after 10 days; for Barnyardgrass plant response rating: Test C, preemergence, 125 g ai/ha
Outline: as §1

horseweed = assay: Test C postemergence; assay type: in vivo, Erigeron canadensis; settings: 10 days
Outline: as §1

barnyardgrass [8] = assay: Test C postemergence; assay type: in vivo, Echinochloa crusgalli; settings: 10 days
Outline: as §1

blackgrass [9] = assay: Test C preemergence; assay type: in vivo, Alopecurus myosuroides; settings: 0 to 100 scale (0 no effect, 100 complete control); for Plant response rating, Blackgrass: Preemergence, 500 g ai/ha, visual rating after 10 days; for Blackgrass plant response rating: Test C, preemergence, 125 g ai/ha
Outline: as §1

kochia [10] = assay: Test C preemergence; assay type: in vivo, Bassia scoparia; settings: preemergence, 0 to 100 scale (0 no effect, 100 complete control)
Outline: as §1

ryegrass, Italian [11] = assay: Test C postemergence; assay type: in vivo, Lolium multiflorum; settings: 125 g ai/ha, postemergence, 10 days; 0 to 100 scale, 0 no effect, 100 complete control
Outline: as §1

green foxtail [12] = assay: Test C postemergence; assay type: in vivo, Setaria viridis; settings: 10 days
Outline: as §1

pigweed, palmer [13] = assay: Test C preemergence; assay type: in vivo, Amaranthus palmeri; settings: preemergence, 0 to 100 scale (0 no effect, 100 complete control)
Outline: as §1

ragweed [14] = assay: Test C postemergence; assay type: in vivo, Ambrosia artemisiifolia; settings: 125 g ai/ha, postemergence, 10 days; 0 to 100 scale, 0 no effect, 100 complete control
Outline: as §1

green foxtail [15] = assay: Test C preemergence; assay type: in vivo, Setaria viridis; settings: preemergence, 0 to 100 scale (0 no effect, 100 complete control)
Outline: as §1

ryegrass, Italian [16] = assay: Test C preemergence; assay type: in vivo, Lolium multiflorum; settings: preemergence, 0 to 100 scale (0 no effect, 100 complete control)
Outline: as §1

soybean [17] = assay: Test C preemergence; assay type: in vivo, Glycine max; settings: preemergence, 0 to 100 scale (0 no effect, 100 complete control)
Outline: as §1

wheat [18] = assay: Test C postemergence; assay type: in vivo, Triticum aestivum; settings: 125 g ai/ha, postemergence, 10 days; 0 to 100 scale, 0 no effect, 100 complete control
Outline: as §1

kochia [19] = assay: Test C postemergence; assay type: in vivo, Bassia scoparia; settings: 125 g ai/ha, postemergence, 10 days; 0 to 100 scale, 0 no effect, 100 complete control
Outline: as §1

oat, wild [20] = assay: Test C postemergence; assay type: in vivo, Avena fatua; settings: 125 g ai/ha, postemergence, 10 days; 0 to 100 scale, 0 no effect, 100 complete control
Outline: as §1

blackgrass [21] = assay: Test C postemergence; assay type: in vivo, Alopecurus myosuroides; settings: 10 days
Outline: as §1

ducksalad = assay: Test D flooded paddy test; assay type: in vivo, Heteranthera limosa; settings: 250 g ai/ha, applied to paddy water, visual rating after 13 to 14 days, scale 0 to 100 (0 no effect, 100 complete control)
Outline: as §2

galium = assay: Test C postemergence; assay type: in vivo, Galium aparine; settings: 10 days
Outline: as §1

pigweed, palmer [22] = assay: Test C postemergence; assay type: in vivo, Amaranthus palmeri; settings: 125 g ai/ha, postemergence, 10 days; 0 to 100 scale, 0 no effect, 100 complete control
Outline: as §1

wheat [23] = assay: Test C preemergence; assay type: in vivo, Triticum aestivum; settings: preemergence, 0 to 100 scale (0 no effect, 100 complete control)
Outline: as §1

[24] = 125 g ai/ha, postemergence, 0 to 100 scale, 0 no effect, 100 complete control
[25] = Postemergence, 500 g ai/ha, visual 0 to 100 scale (0 no effect, 100 complete control)

Structure (SMILES): COc1ccc(-n2cncn2)cc1C(=O)N1C[C@H](C)Oc2c(F)cccc21 [Compound 270]
- Ragweed plant response rating (ragweed [1]; 500 g ai/ha): 60
- Ragweed plant response rating (ragweed [1]; Test C, 125 g ai/ha): 10
- Oat, Wild plant response rating (oat, wild [2]; 500 g ai/ha): 90
- Oat, Wild plant response rating (oat, wild [2]; Test C, 125 g ai/ha): 40
- Corn plant response rating (corn [3]; 500 g ai/ha): 40
- Corn plant response rating (corn [3]; Test C, 125 g ai/ha): 0
- Plant response rating, Corn (corn [4]; [24]): 40
- Plant response rating, Corn (corn [4]; [25]): 90
- Plant response rating, Soybean (soybean [5]): 100
- Plant response rating, Barnyardgrass (Flood) (barnyardgrass [6]): 15
- Plant response rating, Sedge, Umbrella (Flood) (sedge, umbrella): 95
- Plant response rating, Rice (Flood) (rice): 10
- Plant response rating, Barnyardgrass (barnyardgrass [7]): 100
- Barnyardgrass plant response rating (barnyardgrass [7]): 70
- Plant response rating, Horseweed (horseweed; [24]): 20
- Plant response rating, Horseweed (horseweed; [25]): 60
- Plant response rating, Barnyardgrass (barnyardgrass [8]; [24]): 90
- Plant response rating, Barnyardgrass (barnyardgrass [8]; [25]): 100
- Plant response rating, Blackgrass (blackgrass [9]): 90
- Blackgrass plant response rating (blackgrass [9]): 80
- Kochia plant response rating (kochia [10]; 500 g ai/ha): 90
- Kochia plant response rating (kochia [10]; Test C, 125 g ai/ha): 60
- Plant response rating, Ryegrass, Italian (ryegrass, Italian [11]): 80
- Plant response rating, Foxtail, Green (green foxtail [12]; [24]): 80
- Plant response rating, Foxtail, Green (green foxtail [12]; [25]): 90
- Pigweed, Palmer plant response rating (pigweed, palmer [13]; 500 g ai/ha): 100
- Pigweed, Palmer plant response rating (pigweed, palmer [13]; Test C, 125 g ai/ha): 90
- Plant response rating, Ragweed (ragweed [14]): 30
- Foxtail, Green plant response rating (green foxtail [15]; 500 g ai/ha): 100
- Foxtail, Green plant response rating (green foxtail [15]; Test C, 125 g ai/ha): 100
- Ryegrass, Italian plant response rating (ryegrass, Italian [16]; 500 g ai/ha): 100
- Ryegrass, Italian plant response rating (ryegrass, Italian [16]; Test C, 125 g ai/ha): 90
- Soybean plant response rating (soybean [17]; 500 g ai/ha): 100
- Soybean plant response rating (soybean [17]; Test C, 125 g ai/ha): 90
- Plant response rating, Wheat (wheat [18]): 80
- Plant response rating, Kochia (kochia [19]): 30
- Plant response rating, Oat, Wild (oat, wild [20]): 90
- Plant response rating, Blackgrass (blackgrass [21]; [24]): 80
- Plant response rating, Blackgrass (blackgrass [21]; [25]): 90
- Plant response rating, Ducksalad (Flood) (ducksalad): 100
- Plant response rating, Galium (galium; [24]): 100
- Plant response rating, Galium (galium; [25]): 100
- Plant response rating, Pigweed, Palmer (pigweed, palmer [22]): 40
- Wheat plant response rating (wheat [23]; 500 g ai/ha): 90
- Wheat plant response rating (wheat [23]; Test C, 125 g ai/ha): 40

Structure (SMILES): CCc1ncn(-c2ccc(OC)c(C(=S)N3C[C@H](C)Oc4c(C)cccc43)c2)n1 [Compound 271]
- Ragweed plant response rating (ragweed [1]; 500 g ai/ha): 100
- Ragweed plant response rating (ragweed [1]; Test C, 125 g ai/ha): 10
- Oat, Wild plant response rating (oat, wild [2]; 500 g ai/ha): 80
- Oat, Wild plant response rating (oat, wild [2]; Test C, 125 g ai/ha): 30
- Corn plant response rating (corn [3]; 500 g ai/ha): 0
- Corn plant response rating (corn [3]; Test C, 125 g ai/ha): 0
- Plant response rating, Corn (corn [4]; [24]): 50
- Plant response rating, Corn (corn [4]; [25]): 90
- Plant response rating, Soybean (soybean [5]): 100
- Plant response rating, Barnyardgrass (Flood) (barnyardgrass [6]): 0
- Plant response rating, Sedge, Umbrella (Flood) (sedge, umbrella): 100
- Plant response rating, Rice (Flood) (rice): 10
- Plant response rating, Barnyardgrass (barnyardgrass [7]): 100
- Barnyardgrass plant response rating (barnyardgrass [7]): 100
- Plant response rating, Horseweed (horseweed; [24]): 50
- Plant response rating, Horseweed (horseweed; [25]): 90
- Plant response rating, Barnyardgrass (barnyardgrass [8]; [24]): 70
- Plant response rating, Barnyardgrass (barnyardgrass [8]; [25]): 90
- Plant response rating, Blackgrass (blackgrass [9]): 60
- Blackgrass plant response rating (blackgrass [9]): 20
- Kochia plant response rating (kochia [10]; 500 g ai/ha): 100
- Kochia plant response rating (kochia [10]; Test C, 125 g ai/ha): 30
- Plant response rating, Ryegrass, Italian (ryegrass, Italian [11]): 60
- Plant response rating, Foxtail, Green (green foxtail [12]; [24]): 90
- Plant response rating, Foxtail, Green (green foxtail [12]; [25]): 90
- Pigweed, Palmer plant response rating (pigweed, palmer [13]; 500 g ai/ha): 100
- Pigweed, Palmer plant response rating (pigweed, palmer [13]; Test C, 125 g ai/ha): 100
- Plant response rating, Ragweed (ragweed [14]): 50
- Foxtail, Green plant response rating (green foxtail [15]; 500 g ai/ha): 100
- Foxtail, Green plant response rating (green foxtail [15]; Test C, 125 g ai/ha): 100
- Ryegrass, Italian plant response rating (ryegrass, Italian [16]; 500 g ai/ha): 90
- Ryegrass, Italian plant response rating (ryegrass, Italian [16]; Test C, 125 g ai/ha): 80
- Soybean plant response rating (soybean [17]; 500 g ai/ha): 100
- Soybean plant response rating (soybean [17]; Test C, 125 g ai/ha): 70
- Plant response rating, Wheat (wheat [18]): 70
- Plant response rating, Kochia (kochia [19]): 60
- Plant response rating, Oat, Wild (oat, wild [20]): 80
- Plant response rating, Blackgrass (blackgrass [21]; [24]): 70
- Plant response rating, Blackgrass (blackgrass [21]; [25]): 90
- Plant response rating, Ducksalad (Flood) (ducksalad): 85
- Plant response rating, Galium (galium; [24]): 90
- Plant response rating, Galium (galium; [25]): 100
- Plant response rating, Pigweed, Palmer (pigweed, palmer [22]): 90
- Wheat plant response rating (wheat [23]; 500 g ai/ha): 80
- Wheat plant response rating (wheat [23]; Test C, 125 g ai/ha): 20
